Experiment [1] addresses T1, Prostaglandin G/H synthase 2 (Homo sapiens, UniProt P35354).
T1 sequence (P35354 whole entry): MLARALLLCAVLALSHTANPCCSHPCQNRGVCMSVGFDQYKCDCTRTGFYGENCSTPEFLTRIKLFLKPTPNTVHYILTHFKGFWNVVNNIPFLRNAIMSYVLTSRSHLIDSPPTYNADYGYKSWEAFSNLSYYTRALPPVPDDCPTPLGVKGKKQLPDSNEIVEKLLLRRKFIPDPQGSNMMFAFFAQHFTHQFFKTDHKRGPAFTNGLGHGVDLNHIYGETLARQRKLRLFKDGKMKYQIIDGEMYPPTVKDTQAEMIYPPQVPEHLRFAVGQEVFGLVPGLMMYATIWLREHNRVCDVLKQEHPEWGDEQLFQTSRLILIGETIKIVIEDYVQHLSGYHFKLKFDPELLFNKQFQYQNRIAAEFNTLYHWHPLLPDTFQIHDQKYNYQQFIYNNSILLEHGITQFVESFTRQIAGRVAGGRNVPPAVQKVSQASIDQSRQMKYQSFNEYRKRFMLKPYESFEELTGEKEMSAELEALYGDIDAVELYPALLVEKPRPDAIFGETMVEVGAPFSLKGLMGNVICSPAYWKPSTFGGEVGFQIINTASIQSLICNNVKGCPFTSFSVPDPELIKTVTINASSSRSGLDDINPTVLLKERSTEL
As to the kind of experiment: biochemical. It is filed as cell-based, Sf21.
Description: Inhibition of human recombinant COX2 expressed in baculovirus infected sf21 cells assessed as decrease in PGE2 formation using arachidonic acid as substrate preincubated for 10 mins followed by substrate addition measured after 45 mins by LC-MS analysis

Experiment [2] concerns the target T2, Prostaglandin G/H synthase 1 (Ovis aries, UniProt P05979).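 Note: recombinant ovine COX1 enzyme, PGE2 formed from arachidonic acid quantified by LC-MS, 10 min inhibitor preincubation then 45 min reaction, inhibition seen as reduced PGE2.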
T2 sequence (P05979 whole entry): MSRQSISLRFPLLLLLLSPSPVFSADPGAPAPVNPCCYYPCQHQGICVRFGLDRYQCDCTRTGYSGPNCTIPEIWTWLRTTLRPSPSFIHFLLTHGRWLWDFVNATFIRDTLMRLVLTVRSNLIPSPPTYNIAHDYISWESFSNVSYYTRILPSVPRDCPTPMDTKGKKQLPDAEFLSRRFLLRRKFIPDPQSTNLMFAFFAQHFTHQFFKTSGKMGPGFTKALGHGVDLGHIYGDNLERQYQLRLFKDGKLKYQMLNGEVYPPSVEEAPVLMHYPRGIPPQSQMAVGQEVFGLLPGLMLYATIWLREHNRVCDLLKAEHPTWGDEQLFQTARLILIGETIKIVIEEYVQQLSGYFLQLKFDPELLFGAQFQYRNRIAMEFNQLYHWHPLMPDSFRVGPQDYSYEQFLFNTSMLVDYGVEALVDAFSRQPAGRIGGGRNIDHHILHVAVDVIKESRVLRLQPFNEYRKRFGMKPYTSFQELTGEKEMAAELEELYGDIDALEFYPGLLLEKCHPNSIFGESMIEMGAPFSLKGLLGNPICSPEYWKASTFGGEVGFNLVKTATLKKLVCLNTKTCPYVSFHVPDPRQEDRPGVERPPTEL
Description: Inhibition of ovine recombinant COX1 assessed as decrease in formation of PGE2 using arachidonic acid as substrate preincubated for 10 mins followed by substrate addition measured after 45 mins by LC-MS analysis

Experiment [3] concerns the target T3, Polyunsaturated fatty acid 5-lipoxygenase (Homo sapiens, UniProt P09917).
T3 sequence (P09917 whole entry): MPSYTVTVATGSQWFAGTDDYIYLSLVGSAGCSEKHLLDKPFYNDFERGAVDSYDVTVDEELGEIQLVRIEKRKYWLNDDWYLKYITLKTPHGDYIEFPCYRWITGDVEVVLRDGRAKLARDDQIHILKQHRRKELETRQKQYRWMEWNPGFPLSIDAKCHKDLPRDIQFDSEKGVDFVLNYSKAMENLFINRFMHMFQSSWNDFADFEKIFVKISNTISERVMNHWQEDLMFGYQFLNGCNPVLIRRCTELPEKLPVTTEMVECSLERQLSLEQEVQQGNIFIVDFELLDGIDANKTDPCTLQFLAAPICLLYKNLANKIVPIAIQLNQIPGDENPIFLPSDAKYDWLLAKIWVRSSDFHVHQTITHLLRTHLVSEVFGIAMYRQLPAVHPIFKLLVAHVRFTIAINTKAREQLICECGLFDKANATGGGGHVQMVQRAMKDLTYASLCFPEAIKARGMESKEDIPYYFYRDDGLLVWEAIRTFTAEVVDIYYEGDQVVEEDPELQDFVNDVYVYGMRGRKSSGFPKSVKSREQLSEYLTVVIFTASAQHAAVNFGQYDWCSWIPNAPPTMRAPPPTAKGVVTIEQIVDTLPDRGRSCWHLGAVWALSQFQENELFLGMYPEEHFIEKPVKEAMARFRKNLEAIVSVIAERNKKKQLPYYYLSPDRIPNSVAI
Put plainly: Inhibition of human recombinant 5-LOX expressed in insect cells assessed as decrease in production of 5-HPETE and 5-HETE using arachidonic acid as substrate preincubated for 5 mins followed by substrate addition measured after 20 mins in dark by ferric ion oxidation-xylenol orange method. The following applies: read-out: IC50.

For experiment [4], the target named is T4, Polyunsaturated fatty acid lipoxygenase ALOX15B (Homo sapiens) (UniProt O15296).
T4 sequence (whole entry): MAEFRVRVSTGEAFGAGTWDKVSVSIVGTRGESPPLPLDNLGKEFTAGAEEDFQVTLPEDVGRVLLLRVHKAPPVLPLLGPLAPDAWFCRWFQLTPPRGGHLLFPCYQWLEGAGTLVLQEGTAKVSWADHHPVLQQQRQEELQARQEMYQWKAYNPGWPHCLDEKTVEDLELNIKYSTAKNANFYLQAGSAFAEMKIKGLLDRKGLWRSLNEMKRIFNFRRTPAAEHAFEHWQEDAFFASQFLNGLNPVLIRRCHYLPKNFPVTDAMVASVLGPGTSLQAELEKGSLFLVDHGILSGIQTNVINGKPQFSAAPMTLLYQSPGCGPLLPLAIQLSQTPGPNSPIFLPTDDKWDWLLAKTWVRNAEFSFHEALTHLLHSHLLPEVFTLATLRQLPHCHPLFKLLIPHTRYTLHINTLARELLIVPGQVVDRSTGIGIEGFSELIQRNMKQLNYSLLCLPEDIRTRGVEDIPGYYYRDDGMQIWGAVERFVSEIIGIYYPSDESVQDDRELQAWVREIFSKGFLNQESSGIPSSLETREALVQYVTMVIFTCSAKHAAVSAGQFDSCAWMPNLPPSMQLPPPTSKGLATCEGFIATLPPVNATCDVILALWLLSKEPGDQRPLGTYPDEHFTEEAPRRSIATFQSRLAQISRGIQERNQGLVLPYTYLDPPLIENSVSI
Put plainly: Inhibition of human recombinant N-terminal His-tagged 15-LOX2 expressed in Escherichia coli assessed as residual activity at 42 uM using arachidonic acid as substrate preincubated for 5 mins followed by substrate addition measured after 20 mins in dark by ferric ion oxidation-xylenol orange assay relative to control.

Experiment [5] concerns the target T5, Polyunsaturated fatty acid 5-lipoxygenase (Homo sapiens) (UniProt P09917).
T5 sequence (whole entry): T3 sequence (P09917 whole entry)
As to the kind of experiment: Inhibition of human recombinant 5-LOX expressed in insect cells assessed residual activity using arachidonic acid at 42 uM as substrate preincubated for 5 mins followed by substrate addition measured after 20 mins in dark by ferric ion oxidation-xylenol orange method relative to control.

Experiment [6] deals with T6, Polyunsaturated fatty acid lipoxygenase ALOX15B (Homo sapiens, UniProt O15296).
T6 sequence (O15296 whole entry): T4 sequence (whole entry)
As to the kind of experiment: Inhibition of human recombinant N-terminal His-tagged 15-LOX2 expressed in Escherichia coli using arachidonic acid as substrate preincubated for 5 mins followed by substrate addition measured after 20 mins in dark by ferric ion oxidation-xylenol orange assay.

A value given as a limit tells only on which side of the number the result lay.

As usually defined, the IC50 is the concentration that inhibits the measured activity by half.

With `CC1(C)CC[C@]2(C(=O)O)CC[C@]3(C)C(=CC[C@@H]4[C@@]5(C)C[C@H](O)[C@H](O)[C@@](C)(CO)[C@@H]5CC[C@]43C)[C@@H]2C1`, the IC50 in experiment [1] (read-out: IC50) was more than 40 µM; in experiment [2], “Not Active”; in experiment [3], more than 40 µM; in experiment [6], “Not Active”. Besides, the results for the Activity in experiment [4] and in experiment [5] were 100% and 71.9%, respectively.
`CC1(C)CC[C@]2(C)CC[C@]3(C)C(=CC[C@@H]4[C@@]5(C)CC[C@H](O)C(C)(C)[C@@H]5CC[C@]43C)[C@@H]2C1` [beta-AMYRIN]: the half-inhibitory concentration (IC50) result was “Not Active” in experiment [1] (sf21), “Not Active” in experiment [2], more than 40 µM in experiment [3] and more than 40 µM in experiment [6] (read-out: IC50). In addition, the Activity amounted to 97.2% in experiment [4] and 73.3% in experiment [5].

For the origin of these results see ChEMBL document CHEMBL4414666, “Structure-Activity Relationships of Pentacyclic Triterpenoids as Inhibitors of Cyclooxygenase and Lipoxygenase Enzymes” (J Nat Prod, 2019).
